Laboratory results published in patent publication US11427606B2, “Azithromycin derivatives containing a phosphonium ion as anticancer agents” (Rising Tide Foundation, priority 2017, dated 2022).

System: MDA-231 cancer cells
Test: Inhibition of proliferation assay: cell confluence (IncuCyte imaging)
Type: cell-based
Settings: compound at 10 uM; MDA-231 cells; IncuCyte images every 3 h over 4-5 d; relative confluence normalised to time zero
Text: Inhibition of Proliferation Assay
The confluence value is a surrogate for cell proliferation and growth. The value is expressed as a percent confluence, which represents the fraction of culture dish-surface that is occupied by cells. As the number of cells in the dish increases over time due to proliferation, so will their coverage of that surface increase. Expansion of the cell population on the cell culture-dish surface and confluence have mostly a linear relationship until the cells on the plate surface begin to reach saturation or maximum density.
Confluence is determined based on image analysis. Image based software can identify objects in the image field base on changes to pixel density in a grey scale image. The software can then assign a mask to those pixels within the object. Objects can be ‘gated’ out based on size and shape. To determine cell confluence, images of cells are first masked as objects. The surface area of the image that is masked is measured and compared to the total surface area of the culture dish surface to obtain a percent confluence.
MDA-231 cancer cells were obtained from ATCC. Cells were cultured in Dulbecco's Modified Eagle Medium (DMEM) supplemented with 10% Fetal Bovine Serum (FBS), 2 mM Glutamax, 1 mM Non Essential Amino Acid (NEAA) solution and 1 mM sodium pyruvate. […] Final DMSO concentrations were […]. Images were acquired with an IncuCyte Live Cell Imaging microscopy (Essen Bioscience) at every 3 h under cell culture conditions with 10× objective over 4-5 d. Cell confluence was calculated from one field of view per well using the IncuCyte in-built algorithm. Relative confluence values were obtained by normalising each value to the time zero value in each sample.

CC[C@H]1OC(=O)[C@H](C)[C@@H](O[C@H]2C[C@@](C)(OC)[C@@H](O)[C@H](C)O2)[C@H](C)[C@@H](O[C@@H]2O[C@H](C)C[C@H](N(C)C)[C@H]2O)[C@](C)(O)C[C@@H](C)CN(C(=O)CCCCCCCCCCC[PH](c2ccccc2)(c2ccccc2)C(C)C)[C@H](C)[C@@H](O)[C@]1(C)O [Example 33, {12-[(2R,3S,4R,5R,8R,10R,11R,12S,13S,14R)-11-{[(2S,3R,4S,6R)-4-(dimethylamino)-3-hydroxy-6-methyloxan-2-yl]oxy}-2-ethyl-3,4,10-trihydroxy-13-{[(2R,4R,5S,6S)-5-hydroxy-4-methoxy-4,6-dimethyloxan-2-yl]oxy}-3,5,8,10,12,14-hexamethyl-15-oxo-1-oxa-6-azacyclopentadecan-6-yl]-12-oxododecyl}diphenyl(propan-2-yl)phosphonium chloride]
% Confluence: 5.6%

CC[C@H]1OC(=O)[C@H](C)[C@@H](O[C@H]2C[C@@](C)(OC)[C@@H](O)[C@H](C)O2)[C@H](C)[C@@H](O[C@@H]2O[C@H](C)C[C@H](N(C)C)[C@H]2O)[C@](C)(O)C[C@@H](C)CN(C(=O)CCCCCCCCCCC[PH](C)(C)c2ccccc2)[C@H](C)[C@@H](O)[C@]1(C)O [Example 23, {12-[(2R,3S,4R,5R,8R,10R,11R,12S,13S,14R)-11-{[(2S,3R,4S,6R)-4-(dimethylamino)-3-hydroxy-6-methyloxan-2-yl]oxy}-2-ethyl-3,4,10-trihydroxy-13-{[(2R,4R,5S,6S)-5-hydroxy-4-methoxy-4,6-dimethyloxan-2-yl]oxy}-3,5,8,10,12,14-hexamethyl-15-oxo-1-oxa-6-azacyclopentadecan-6-yl]-12-oxododecyl}dimethylphenylphosphonium chloride]
% Confluence: 7.5%

CC[C@H]1OC(=O)[C@H](C)[C@@H](O[C@H]2C[C@@](C)(OC)[C@@H](O)[C@H](C)O2)[C@H](C)[C@@H](O[C@@H]2O[C@H](C)C[C@H](N(C)C)[C@H]2O)[C@](C)(O)C[C@@H](C)CN(C(=O)CCCCC[P+](c2ccccc2)(c2ccccc2)c2cccc(S(=O)(=O)O)c2)[C@H](C)[C@@H](O)[C@]1(C)O.F[P-](F)(F)(F)(F)F [Example 2, {6-[(2R,3S,4R,5R,8R,10R,11R,12S,13S,14R)-11-{[(2S,3R,4S,6R)-4-(dimethylamino)-3-hydroxy-6-methyloxan-2-yl]oxy}-2-ethyl-3,4,10-trihydroxy-13-{[(2R,4R,5S,6S)-5-hydroxy-4-methoxy-4,6-dimethyloxan-2-yl]oxy}-3,5,8,10,12,14-hexamethyl-15-oxo-1-oxa-6-azacyclopentadecan-6-yl]-6-oxohexyl}diphenyl(3-sulfophenyl)phosphoniumhexafluorophosphate(V)]
% Confluence: 131.8%

CC[C@H]1OC(=O)[C@H](C)[C@@H](O[C@H]2C[C@@](C)(OC)[C@@H](O)[C@H](C)O2)[C@H](C)[C@@H](O[C@@H]2O[C@H](C)C[C@H](N(C)C)[C@H]2O)[C@](C)(O)C[C@@H](C)CN(CCCCCC[P+](c2ccccc2-c2ccccc2N(C)C)(C2CCCCC2)C2CCCCC2)[C@H](C)[C@@H](O)[C@]1(C)O [Example 10, dicyclohexyl({6-[(2R,3S,4R,5R,8R,10R,11R,12S,13S,14R)-11-{[(2S,3R,4S,6R)-4-(dimethylamino)-3-hydroxy-6-methyloxan-2-yl]oxy}-2-ethyl-3,4,10-trihydroxy-13-{[(2R,4R,5S,6S)-5-hydroxy-4-methoxy-4,6-dimethyloxan-2-yl]oxy}-3,5,8,10,12,14-hexamethyl-15-oxo-1-oxa-6-azacyclopentadecan-6-yl]hexyl})[2′-(dimethylamino)-[1,1′-biphenyl]-2-yl]phosphonium iodide]
% Confluence: 4%
